# Source: PubChem BioAssay AID2060606 (Molecular Pharmacology Branch, DTP, NCI, 2025)
# pIC50: −log10 of the molar value.
# Test system: 922993-354-T-J3-PDC complex spheroids, viability, % test/control
# Experiment: Anticancer human tumor 922993-354-T-J3-PDC patient-derived endometrial carcinoma cell line growth inhibition [CLK]
# Conditions: for pIC50: curve of first compound; for viability, T/C: stronger effect = lower value
# Method in brief: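 Patient-derived tumor cells grown as complex spheroids with HUVEC endothelial cells and mesenchymal stem cells, treated with drug combinations. Concentrations descend in half-log steps from near clinical Cmax, or from 10 microM if Cmax unknown.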
# [1] = second compound 0.0316 µM, first compound 0.00949 µM
# [2] = second compound 0.0316 µM, first compound 0.03 µM
# [3] = second compound 0.0316 µM, first compound 0.0949 µM
# [4] = second compound 0.0316 µM, first compound 0.3 µM
# [5] = second compound 0.1 µM, first compound 0.00949 µM
# [6] = second compound 0.1 µM, first compound 0.03 µM
# [7] = second compound 0.1 µM, first compound 0.0949 µM
# [8] = second compound 0.1 µM, first compound 0.3 µM
# [9] = second compound 0.316 µM, first compound 0.00949 µM
# [10] = second compound 0.316 µM, first compound 0.03 µM
# [11] = second compound 0.316 µM, first compound 0.0949 µM
# [12] = second compound 0.316 µM, first compound 0.3 µM
# [13] = second compound 1 µM, first compound 0.00949 µM
# [14] = second compound 1 µM, first compound 0.03 µM
# [15] = second compound 1 µM, first compound 0.0949 µM
# [16] = second compound 1 µM, first compound 0.3 µM
# [17] = second compound 3.16 µM, first compound 0.00949 µM
# [18] = second compound 3.16 µM, first compound 0.03 µM
# [19] = second compound 3.16 µM, first compound 0.0949 µM
# [20] = second compound 3.16 µM, first compound 0.3 µM
# [21] = second compound 10 µM, first compound 0.00949 µM
# [22] = second compound 10 µM, first compound 0.03 µM
# [23] = second compound 10 µM, first compound 0.0949 µM
# [24] = second compound 10 µM, first compound 0.3 µM
# 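Also: spheroids exposed to the agents for 7 days before readout.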
smiles,measurement,setting,value
C=CC(=O)Nc1cc(Nc2nccc(-c3cn(C)c4ccccc34)n2)c(OC)cc1N(C)CCN(C)C + CN1CCN(c2cc(C(=O)Nc3cc4cc(-c5cnn(C)c5)ccc4cn3)ccn2)CC1,pIC50,second compound 0.0316 µM,< 6.52
same,pIC50,second compound 0.1 µM,< 6.52
same,pIC50,second compound 0.316 µM,> 9.02
same,pIC50,second compound 1 µM,> 9.02
same,pIC50,second compound 3.16 µM,> 9.02
same,pIC50,second compound 10 µM,> 9.02
same,"viability, T/C","second compound 0.0316 µM, first compound 0.000949 µM",98.9%
same,"viability, T/C","second compound 0.0316 µM, first compound 0.003 µM",98.4%
same,"viability, T/C",[1],101%
same,"viability, T/C",[2],108%
same,"viability, T/C",[3],97.4%
same,"viability, T/C",[4],73.1%
same,"viability, T/C","second compound 0.1 µM, first compound 0.000949 µM",96.7%
same,"viability, T/C","second compound 0.1 µM, first compound 0.003 µM",97.7%
same,"viability, T/C",[5],83.7%
same,"viability, T/C",[6],69%
same,"viability, T/C",[7],81%
same,"viability, T/C",[8],63.3%
same,"viability, T/C","second compound 0.316 µM, first compound 0.000949 µM",41.8%
same,"viability, T/C","second compound 0.316 µM, first compound 0.003 µM",45.5%
same,"viability, T/C",[9],44.2%
same,"viability, T/C",[10],22.8%
same,"viability, T/C",[11],31.7%
same,"viability, T/C",[12],27.8%
same,"viability, T/C","second compound 1 µM, first compound 0.000949 µM",0.12%
same,"viability, T/C","second compound 1 µM, first compound 0.003 µM",0.13%
same,"viability, T/C",[13],1.12%
same,"viability, T/C",[14],0.1%
same,"viability, T/C",[15],0.1%
same,"viability, T/C",[16],1.55%
same,"viability, T/C","second compound 3.16 µM, first compound 0.000949 µM",0.11%
same,"viability, T/C","second compound 3.16 µM, first compound 0.003 µM",0.14%
same,"viability, T/C",[17],0.14%
same,"viability, T/C",[18],0.7%
same,"viability, T/C",[19],0.13%
same,"viability, T/C",[20],1.62%
same,"viability, T/C","second compound 10 µM, first compound 0.000949 µM",0.15%
same,"viability, T/C","second compound 10 µM, first compound 0.003 µM",0.17%
same,"viability, T/C",[21],1.16%
same,"viability, T/C",[22],0.16%
same,"viability, T/C",[23],1.05%
same,"viability, T/C",[24],0.62%
NC(=O)C(=Cn1cnc(-c2cc(C(F)(F)F)cc(C(F)(F)F)c2)n1)c1cncnc1 + CN1CCN(c2cc(C(=O)Nc3cc4cc(-c5cnn(C)c5)ccc4cn3)ccn2)CC1,pIC50,second compound 0.0316 µM,6.64
same,pIC50,second compound 0.1 µM,6.76
same,pIC50,second compound 0.316 µM,> 8.02
same,pIC50,second compound 1 µM,> 8.02
same,pIC50,second compound 3.16 µM,> 8.02
same,pIC50,second compound 10 µM,> 8.02
same,"viability, T/C",[1],119%
same,"viability, T/C",[2],115%
same,"viability, T/C",[3],82.1%
same,"viability, T/C",[4],40.1%
same,"viability, T/C","second compound 0.0316 µM, first compound 0.949 µM",30.6%
same,"viability, T/C","second compound 0.0316 µM, first compound 3 µM",41.2%
same,"viability, T/C",[5],118%
same,"viability, T/C",[6],118%
same,"viability, T/C",[7],80.7%
same,"viability, T/C",[8],21.7%
same,"viability, T/C","second compound 0.1 µM, first compound 0.949 µM",21.5%
same,"viability, T/C","second compound 0.1 µM, first compound 3 µM",20%
same,"viability, T/C",[9],48.8%
same,"viability, T/C",[10],32.3%
same,"viability, T/C",[11],4.78%
same,"viability, T/C",[12],1.32%
same,"viability, T/C","second compound 0.316 µM, first compound 0.949 µM",0.16%
same,"viability, T/C","second compound 0.316 µM, first compound 3 µM",1.43%
same,"viability, T/C",[13],0.11%
same,"viability, T/C",[14],0.75%
same,"viability, T/C",[15],0.12%
same,"viability, T/C",[16],0.07%
same,"viability, T/C","second compound 1 µM, first compound 0.949 µM",0.71%
same,"viability, T/C","second compound 1 µM, first compound 3 µM",2.13%
same,"viability, T/C",[17],0.1%
same,"viability, T/C",[18],0.13%
same,"viability, T/C",[19],0.17%
same,"viability, T/C",[20],1.63%
same,"viability, T/C","second compound 3.16 µM, first compound 0.949 µM",1.45%
same,"viability, T/C","second compound 3.16 µM, first compound 3 µM",2.46%
same,"viability, T/C",[21],0.14%
same,"viability, T/C",[22],0.16%
same,"viability, T/C",[23],1.88%
same,"viability, T/C",[24],0.19%
same,"viability, T/C","second compound 10 µM, first compound 0.949 µM",0.8%
same,"viability, T/C","second compound 10 µM, first compound 3 µM",2.01%
Nc1ccccc1NC(=O)c1ccc(CNC(=O)OCc2cccnc2)cc1 + CN1CCN(c2cc(C(=O)Nc3cc4cc(-c5cnn(C)c5)ccc4cn3)ccn2)CC1,pIC50,second compound 0.0316 µM,< 5.00
same,pIC50,second compound 0.1 µM,5.33
same,pIC50,second compound 0.316 µM,> 7.50
same,pIC50,second compound 1 µM,> 7.50
same,pIC50,second compound 3.16 µM,> 7.50
same,pIC50,second compound 10 µM,> 7.50
same,"viability, T/C","second compound 0.0316 µM, first compound 0.0316 µM",111%
same,"viability, T/C","second compound 0.0316 µM, first compound 0.1 µM",114%
same,"viability, T/C","second compound 0.0316 µM, first compound 0.316 µM",103%
same,"viability, T/C","second compound 0.0316 µM, first compound 1 µM",90.3%
same,"viability, T/C","second compound 0.0316 µM, first compound 3.16 µM",62%
same,"viability, T/C","second compound 0.0316 µM, first compound 10 µM",51.9%
same,"viability, T/C","second compound 0.1 µM, first compound 0.0316 µM",103%
same,"viability, T/C","second compound 0.1 µM, first compound 0.1 µM",97.2%
same,"viability, T/C","second compound 0.1 µM, first compound 0.316 µM",83.8%
same,"viability, T/C","second compound 0.1 µM, first compound 1 µM",60.1%
same,"viability, T/C","second compound 0.1 µM, first compound 3.16 µM",59.6%
same,"viability, T/C","second compound 0.1 µM, first compound 10 µM",41.7%
same,"viability, T/C","second compound 0.316 µM, first compound 0.0316 µM",39.8%
same,"viability, T/C","second compound 0.316 µM, first compound 0.1 µM",29.3%
same,"viability, T/C","second compound 0.316 µM, first compound 0.316 µM",31.7%
same,"viability, T/C","second compound 0.316 µM, first compound 1 µM",33%
same,"viability, T/C","second compound 0.316 µM, first compound 3.16 µM",6.16%
same,"viability, T/C","second compound 0.316 µM, first compound 10 µM",1.51%
same,"viability, T/C","second compound 1 µM, first compound 0.0316 µM",0.15%
same,"viability, T/C","second compound 1 µM, first compound 0.1 µM",1.32%
same,"viability, T/C","second compound 1 µM, first compound 0.316 µM",0.79%
same,"viability, T/C","second compound 1 µM, first compound 1 µM",0.09%
same,"viability, T/C","second compound 1 µM, first compound 3.16 µM",0.26%
same,"viability, T/C","second compound 1 µM, first compound 10 µM",1.83%
same,"viability, T/C","second compound 3.16 µM, first compound 0.0316 µM",0.61%
same,"viability, T/C","second compound 3.16 µM, first compound 0.1 µM",0.12%
same,"viability, T/C","second compound 3.16 µM, first compound 0.316 µM",1.29%
same,"viability, T/C","second compound 3.16 µM, first compound 1 µM",0.65%
same,"viability, T/C","second compound 3.16 µM, first compound 3.16 µM",1.19%
same,"viability, T/C","second compound 3.16 µM, first compound 10 µM",1.23%
same,"viability, T/C","second compound 10 µM, first compound 0.0316 µM",0.11%
same,"viability, T/C","second compound 10 µM, first compound 0.1 µM",0.14%
same,"viability, T/C","second compound 10 µM, first compound 0.316 µM",2.33%
same,"viability, T/C","second compound 10 µM, first compound 1 µM",0.14%
same,"viability, T/C","second compound 10 µM, first compound 3.16 µM",2.41%
same,"viability, T/C","second compound 10 µM, first compound 10 µM",2.96%
